According to ChEMBL document CHEMBL1201862, “PubChem BioAssay data set” (2004):
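Values below derive from 48-hour exposures of cells grown in 96-well plates, with endpoints linearly interpolated between the two concentrations bracketing the appropriate inhibition level. GI50: concentration for 50% inhibition of growth.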 Calls of active or inactive are those of the source. Cut-off read from the data, not from the text of the source: active = GI50 up to about 1.1 µM and inactive = higher.

Tests used:
Assay in all cases: NCI-60 cell line screen, 48 h
Hs-578T = system: Hs-578T
OVCAR-5 = system: OVCAR-5
SNB-19 = system: SNB-19
NCI/ADR-RES = system: NCI/ADR-RES
DU-145 = system: DU-145
HOP-62 = system: HOP-62
NCI-H226 = system: NCI-H226
BT-549 = system: BT-549
HCT-116 = system: HCT-116
NCI-H460 = system: NCI-H460
EKVX = system: EKVX
A549 = system: A549
SNB-75 = system: SNB-75
CCRF-CEM = system: CCRF-CEM
HT-29 = system: HT-29
HCT-15 = system: HCT-15
HL-60 = system: HL-60
SR = system: SR
RPMI-8226 = system: RPMI-8226
IGROV-1 = system: IGROV-1
A498 = system: A498
OVCAR-8 = system: OVCAR-8
TK-10 = system: TK-10
OVCAR-3 = system: OVCAR-3
CAKI-1 = system: CAKI-1
SF-268 = system: SF-268
MOLT-4 = system: MOLT-4
SK-MEL-28 = system: SK-MEL-28
M14 = system: M14
NCI-H23 = system: NCI-H23
K562 = system: K562
UO-31 = system: UO-31
KM12 = system: KM12
U-251 = system: U-251
SF-295 = system: SF-295
MCF7 = system: MCF7
SN12C = system: SN12C
SW-620 = system: SW-620
786-0 = system: 786-0
UACC-62 = system: UACC-62
SK-MEL-2 = system: SK-MEL-2
MDA-MB-231 = system: MDA-MB-231
T47D = system: T47D
SK-MEL-5 = system: SK-MEL-5
HOP-92 = system: HOP-92
COLO 205 = system: COLO 205
UACC-257 = system: UACC-257
MDA-N = system: MDA-N
PC-3 = system: PC-3
ACHN = system: ACHN
MDA-MB-435 = system: MDA-MB-435
LOX IMVI = system: LOX IMVI
SK-OV-3 = system: SK-OV-3
SF-539 = system: SF-539
RXF 393 = system: RXF 393
OVCAR-4 = system: OVCAR-4
NCI-H522 = system: NCI-H522
Malme-3M = system: Malme-3M
HCC 2998 = system: HCC 2998

CCCC1C2=C(C(=O)OC2=O)C2C(CC)CC3=C(C(=O)OC3=O)C12 (configuration not stated)
GI50 (Hs-578T): 18.4 µM (inactive)
GI50 (OVCAR-5): > 100 µM (inactive)
GI50 (SNB-19): > 100 µM (inactive)
GI50 (NCI/ADR-RES): > 100 µM (inactive)
GI50 (DU-145): > 100 µM (inactive)
GI50 (HOP-62): > 100 µM (inactive)
GI50 (NCI-H226): > 100 µM (inactive)
GI50 (BT-549): > 100 µM (inactive)
GI50 (HCT-116): > 100 µM (inactive)
GI50 (NCI-H460): > 100 µM (inactive)
GI50 (EKVX): > 100 µM (inactive)
GI50 (A549): > 100 µM (inactive)
GI50 (SNB-75): > 100 µM (inactive)
GI50 (CCRF-CEM): > 100 µM (inactive)
GI50 (HT-29): > 100 µM (inactive)
GI50 (HCT-15): > 100 µM
GI50 (HL-60): > 100 µM (inactive)
GI50 (SR): > 100 µM (inactive)
GI50 (RPMI-8226): > 100 µM (inactive)
GI50 (IGROV-1): > 100 µM (inactive)
GI50 (A498): > 100 µM (inactive)
GI50 (OVCAR-8): > 100 µM (inactive)
GI50 (TK-10): > 100 µM (inactive)
GI50 (OVCAR-3): > 100 µM (inactive)
GI50 (CAKI-1): > 100 µM (inactive)
GI50 (SF-268): > 100 µM (inactive)
GI50 (MOLT-4): > 100 µM (inactive)
GI50 (SK-MEL-28): > 100 µM (inactive)
GI50 (M14): > 100 µM (inactive)
GI50 (NCI-H23): > 100 µM (inactive)
GI50 (K562): > 100 µM (inactive)
GI50 (UO-31): > 100 µM (inactive)
GI50 (KM12): > 100 µM (inactive)
GI50 (U-251): > 100 µM (inactive)
GI50 (SF-295): > 100 µM (inactive)
GI50 (MCF7): > 100 µM (inactive)
GI50 (SN12C): > 100 µM (inactive)
GI50 (SW-620): > 100 µM (inactive)
GI50 (786-0): > 100 µM (inactive)
GI50 (UACC-62): > 100 µM (inactive)
GI50 (SK-MEL-2): > 100 µM (inactive)
GI50 (MDA-MB-231): > 100 µM (inactive)
GI50 (T47D): > 100 µM (inactive)
GI50 (SK-MEL-5): > 100 µM (inactive)
GI50 (HOP-92): > 100 µM (inactive)
GI50 (COLO 205): > 100 µM (inactive)
GI50 (UACC-257): > 100 µM (inactive)
GI50 (MDA-N): > 100 µM (inactive)
GI50 (PC-3): > 100 µM (inactive)
GI50 (ACHN): > 100 µM (inactive)
GI50 (MDA-MB-435): > 100 µM (inactive)
GI50 (LOX IMVI): > 100 µM (inactive)
GI50 (SK-OV-3): > 100 µM (inactive)
GI50 (SF-539): > 100 µM (inactive)

c1ccc2c(c1)CC1c3[nH]c4ccccc4c3CCN21 (configuration not stated)
GI50 (Hs-578T): > 10 µM (inactive)
GI50 (OVCAR-5): > 10 µM (inactive)
GI50 (SNB-19): > 10 µM (inactive)
GI50 (NCI/ADR-RES): > 10 µM (inactive)
GI50 (DU-145): > 10 µM (inactive)
GI50 (HOP-62): > 10 µM (inactive)
GI50 (NCI-H226): > 10 µM (inactive)
GI50 (BT-549): > 10 µM (inactive)
GI50 (HCT-116): > 10 µM (inactive)
GI50 (NCI-H460): > 10 µM (inactive)
GI50 (EKVX): > 10 µM (inactive)
GI50 (A549): > 10 µM (inactive)
GI50 (SNB-75): > 10 µM (inactive)
GI50 (CCRF-CEM): > 10 µM (inactive)
GI50 (HT-29): > 10 µM (inactive)
GI50 (HCT-15): > 10 µM
GI50 (HL-60): > 10 µM (inactive)
GI50 (SR): > 10 µM (inactive)
GI50 (RPMI-8226): > 10 µM (inactive)
GI50 (IGROV-1): > 10 µM (inactive)
GI50 (RXF 393): > 10 µM (inactive)
GI50 (OVCAR-8): > 10 µM (inactive)
GI50 (TK-10): > 10 µM (inactive)
GI50 (OVCAR-3): > 10 µM (inactive)
GI50 (CAKI-1): > 10 µM (inactive)
GI50 (SF-268): > 10 µM (inactive)
GI50 (MOLT-4): > 10 µM (inactive)
GI50 (SK-MEL-28): > 10 µM (inactive)
GI50 (M14): > 10 µM (inactive)
GI50 (NCI-H23): > 10 µM (inactive)
GI50 (OVCAR-4): > 10 µM (inactive)
GI50 (K562): > 10 µM (inactive)
GI50 (NCI-H522): > 10 µM (inactive)
GI50 (UO-31): > 10 µM (inactive)
GI50 (KM12): > 10 µM (inactive)
GI50 (U-251): > 10 µM (inactive)
GI50 (SF-295): > 10 µM (inactive)
GI50 (MCF7): > 10 µM (inactive)
GI50 (SN12C): > 10 µM (inactive)
GI50 (SW-620): > 10 µM (inactive)
GI50 (786-0): > 10 µM (inactive)
GI50 (UACC-62): > 10 µM (inactive)
GI50 (SK-MEL-2): > 10 µM (inactive)
GI50 (MDA-MB-231): > 10 µM (inactive)
GI50 (T47D): > 10 µM (inactive)
GI50 (SK-MEL-5): > 10 µM (inactive)
GI50 (Malme-3M): > 10 µM (inactive)
GI50 (HOP-92): > 10 µM (inactive)
GI50 (COLO 205): > 10 µM (inactive)
GI50 (UACC-257): > 10 µM (inactive)
GI50 (MDA-N): > 10 µM (inactive)
GI50 (PC-3): > 10 µM (inactive)
GI50 (ACHN): > 10 µM (inactive)
GI50 (HCC 2998): > 10 µM (inactive)
GI50 (MDA-MB-435): > 10 µM (inactive)
GI50 (LOX IMVI): > 10 µM (inactive)
GI50 (SK-OV-3): > 10 µM (inactive)
GI50 (SF-539): > 10 µM (inactive)
